Read-outs that look alike come from different tables or passages of the source. Ends that are not written are not given here. Peptide text beside a SMILES is read from it.
Tests used:
[1] = biological target: T1, CRF1R (Homo sapiens, UniProt P34998); experiment: CRF1R agonist activation (EC50 / Emax), called comparative CRF binding; assay type: cell-based
T1 sequence (P34998 24-415): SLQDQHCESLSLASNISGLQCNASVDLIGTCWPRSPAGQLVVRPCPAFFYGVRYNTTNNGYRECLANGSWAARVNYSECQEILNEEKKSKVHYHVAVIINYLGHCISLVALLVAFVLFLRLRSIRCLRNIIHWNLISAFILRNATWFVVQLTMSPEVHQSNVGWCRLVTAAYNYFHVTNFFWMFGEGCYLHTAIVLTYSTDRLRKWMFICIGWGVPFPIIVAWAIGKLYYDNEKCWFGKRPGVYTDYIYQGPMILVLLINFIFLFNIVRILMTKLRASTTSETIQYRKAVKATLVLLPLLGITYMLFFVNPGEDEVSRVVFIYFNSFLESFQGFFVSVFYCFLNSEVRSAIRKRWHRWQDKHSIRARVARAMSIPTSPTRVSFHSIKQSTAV
Outline: (§1)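 Cells expressing full-length human CRF1R or CRF2R were exposed to peptide or vehicle control, and receptor activation was gauged as cAMP induction. cAMP was measured in cell lysates or via a cAMP-responsive element driving a reporter gene such as luciferase, CAT, GFP or alkaline phosphatase.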

[2] = biological target: T2, CRF2R (Homo sapiens, UniProt Q13324); experiment: CRF2R agonist activation (EC50 / Emax), called comparative CRF binding; assay type: cell-based
T2 sequence (Q13324 1-411): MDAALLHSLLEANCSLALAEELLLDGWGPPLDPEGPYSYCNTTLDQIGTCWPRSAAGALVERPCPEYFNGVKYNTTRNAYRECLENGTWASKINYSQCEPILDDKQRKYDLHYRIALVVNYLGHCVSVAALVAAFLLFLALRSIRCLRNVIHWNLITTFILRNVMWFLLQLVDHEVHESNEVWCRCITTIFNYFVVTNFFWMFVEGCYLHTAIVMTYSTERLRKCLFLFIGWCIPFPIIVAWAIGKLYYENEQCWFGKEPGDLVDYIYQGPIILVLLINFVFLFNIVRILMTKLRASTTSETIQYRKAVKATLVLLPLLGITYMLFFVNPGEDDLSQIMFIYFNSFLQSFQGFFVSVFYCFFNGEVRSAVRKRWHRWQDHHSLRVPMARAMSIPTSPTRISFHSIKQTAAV
Outline: as §1

Molecule	Emax ([1]; read-out: CRF1R Emax) [%]	Emax ([2]; read-out: CRF2R Emax) [%]	other results
CC[C@H](C)[C@H](NC(=O)[C@H](CO)NC(=O)[C@H](CC(C)C)NC(=O)[C@H](CO)NC(=O)[C@@H]1CCCN1C(=O)[C@H](CC(N)=O)NC(=O)[C@@H](N)CC(=O)O)C(=O)N[C@@H](CC(=O)O)C(=O)N[C@@H](CC(C)C)C(=O)N[C@H](C(=O)N[C@@H](Cc1ccccc1)C(=O)N[C@@H](Cc1c[nH]cn1)C(=O)N[C@@H](CC(C)C)C(=O)N[C@@H](CC(C)C)C(=O)N[C@@H](CCCNC(=N)N)C(=O)N[C@H](C(=O)N[C@@H](CC(C)C)C(=O)N[C@@H](CC(C)C)C(=O)N[C@@H](CCC(=O)O)C(=O)N[C@@H](CC(C)C)C(=O)N[C@@H](C)C(=O)N[C@@H](CCCNC(=N)N)C(=O)N[C@H](C(=O)N[C@@H](CCC(N)=O)C(=O)N[C@@H](CO)C(=O)N[C@@H](CCC(N)=O)C(=O)N[C@@H](CCCNC(=N)N)C(=O)N[C@@H](CCC(=O)O)C(=O)N[C@@H](CCCNC(=N)N)C(=O)N[C@@H](C)C(=O)N[C@@H](CCC(=O)O)C(=O)N[C@@H](CCC(N)=O)C(=O)N[C@@H](CC(N)=O)C(=O)N[C@@H](CCCNC(=N)N)C(=O)N[C@H](C(=O)N[C@H](C(=O)N[C@@H](Cc1ccccc1)C(=O)N[C@@H](CC(=O)O)C(=O)N[C@@H](CO)C(=O)N[C@H](C(N)=O)C(C)C)[C@@H](C)CC)[C@@H](C)CC)[C@@H](C)O)[C@@H](C)O)[C@@H](C)O [hUcnI, human urocortin I, reference compound] (H-DNPSLSIDLTFHLLRTLLELARTQSQRERAEQNRIIFDSV-NH2)	–	–	Emax ([1]; read-out: CRF1R (Emax %), Emax): 100%; Emax ([2]; read-out: CRF2R (Emax %), Emax): 100%
CC[C@H](C)[C@H](NC(=O)[C@H](CCC(N)=O)NC(=O)[C@H](C)NC(=O)[C@H](CCSC)NC(=O)[C@H](CC(C)C)NC(=O)[C@H](Cc1c[nH]cn1)NC(=O)[C@H](C)NC(=O)[C@H](CC(N)=O)NC(=O)[C@H](C)NC(=O)[C@H](C)NC(=O)[C@H](C)NC(=O)[C@H](CCC(N)=O)NC(=O)[C@H](C)NC(=O)[C@H](CCCNC(=N)N)NC(=O)[C@H](CC(C)C)NC(=O)[C@H](CC(N)=O)NC(=O)[C@H](CCCCN)NC(=O)[C@H](C)NC(=O)[C@H](CCCCN)NC(=O)[C@H](C)NC(=O)[C@@H](NC(=O)[C@H](CC(N)=O)NC(=O)[C@H](Cc1ccccc1)NC(=O)[C@H](CC(C)C)NC(=O)[C@H](CC(C)C)NC(=O)[C@H](CC(N)=O)NC(=O)[C@H](CCSC)NC(=O)[C@@H](NC(=O)[C@H](CC(N)=O)NC(=O)[C@@H](NC(=O)[C@@H]1CCCN1C(=O)[C@@H](NC(=O)[C@H](CC(=O)O)NC(=O)[C@H](CC(C)C)NC(=O)[C@H](CO)NC(=O)[C@H](CC(C)C)NC(=O)[C@@H](NC(=O)[C@H](Cc1ccccc1)NC(=O)[C@H](CCCCN)NC(=O)[C@@H](N)[C@@H](C)O)[C@@H](C)O)C(C)C)[C@@H](C)O)[C@@H](C)CC)[C@@H](C)CC)C(N)=O [hUroIII, human urocortin III, reference compound] (H-TKFTLSLDVPTNIMNLLFNIAKAKNLRAQAAANAHLMAQI-NH2)	–	–	Emax ([1]; Emax, read-out: CRF1R (Emax %)): 10.2%; Emax ([2]; Emax, read-out: CRF2R (Emax %)): 60%
CC[C@H](C)[C@H](NC(=O)[C@H](CC(=O)O)NC(=O)[C@H](CC(C)C)NC(=O)[C@H](CC(C)C)NC(=O)[C@H](CCCCN)NC(=O)[C@H](CCCNC(=N)N)NC(=O)[C@H](CC(N)=O)NC(=O)[C@H](CO)NC(=O)[C@H](Cc1c[nH]cn1)NC(=O)[C@H](C)NC(=O)[C@H](CCC(N)=O)NC(=O)[C@H](CCC(N)=O)NC(=O)[C@H](C)NC(=O)[C@H](CC(C)C)NC(=O)[C@H](CCC(N)=O)NC(=O)[C@H](CC(=O)O)NC(=O)[C@H](C)NC(=O)[C@H](CCCCN)NC(=O)[C@@H](NC(=O)[C@H](CCSC)NC(=O)[C@H](CCC(=O)O)NC(=O)[C@H](CC(C)C)NC(=O)[C@@H](NC(=O)[C@H](CCC(=O)O)NC(=O)[C@H](CCCNC(=N)N)NC(=O)[C@H](CC(C)C)NC(=O)[C@H](CC(C)C)NC(=O)[C@H](Cc1c[nH]cn1)NC(=O)[C@H](Cc1ccccc1)NC(=O)[C@@H](NC(=O)[C@H](CC(C)C)NC(=O)[C@H](CC(=O)O)NC(=O)[C@H](CC(C)C)NC(=O)[C@H](CO)NC(=O)[C@@H](NC(=O)[C@@H]1CCCN1C(=O)[C@@H]1CCCN1C(=O)[C@H](CCC(=O)O)NC(=O)[C@H](CCC(N)=O)NC(=O)[C@@H](N)CO)[C@@H](C)CC)[C@@H](C)O)C(C)C)[C@@H](C)O)C(=O)N[C@@H](C)C(N)=O [oCRF, sheep corticotropin releasing factor, reference compound]	–	–	EC50 [1]: 27.4 nM; Emax ([1]; Emax, read-out: CRF1R (Emax %)): 98%; EC50 [2]: > 100 nM; Emax ([2]; Emax, read-out: CRF2R (Emax %)): 33%
HHHHHHIVLSLDVPIGLLQILLEQARARAAREQATTNARILARN-NH2 [compound 296]	4	65	–
NDDPPISIDLPFFLLRNMIEMARIENEREQAGLNAKYLAEV-NH2 [compound 264]	100	66.3	–
NDDPPISIDLPFHLLRNMIEMARIENEREQAGLNAKYLAEV-NH2 [compound 262]	100	92.2	–
NDDPPISIDLPFLLLRNMIEMARIENEREQAGLNAKYLAEV-NH2 [compound 260]	89.7	89.3	EC50 ([1]; read-out: CRF1R EC50): 834 nM; EC50 ([2]; read-out: CRF2R EC50): ≥ 100 nM
NDDPPISIDLPFQLLRNMIEMARIENEREQAGLNAKYLAEV-NH2 [compound 258]	23.6	49.3	–
NDDPPISIDLPFYLLRNMIEMARIENEREQAGLNAKYLAEV-NH2 [compound 261]	100	95.3	–
NDDPPISIDLPLFLLRNMIEMARIENEREQAGLNAKYLAEV-NH2 [compound 257]	83.5	72.6	–
NDDPPISIDLPLHLLRNMIEMARIENEREQAGLNAKYLAEV-NH2 [compound 259]	83.6	65	–
NDDPPISIDLPLILLRNMIEMARIENEREQAGLNAKYLAEV-NH2 [compound 269]	44.3	77.3	–
NDDPPISIDLPLLLLRNMIEMARIENEREQAGLNAKYLAEV-NH2 [compound 268]	14.2	59	–
NDDPPISIDLPLQLLRNMIEMARIENEREQAGLNAKYLAEV-NH2 [compound 270]	7.85	19.3	–
NDDPPISIDLPLYLLRNMIEMARIENEREQAGLNAKYLAEV-NH2 [compound 271]	80.7	69	EC50 ([1]; read-out: CRF1R EC50): 815 nM; EC50 ([2]; read-out: CRF2R EC50): 48.1 nM
NDDPPISIDLPQYLLRNMIEMARIENEREQAGLNAKYLAEV-NH2 [compound 265]	9.3	23.4	–
NDDPPISIDLPTYLLRNMIEMARIENEREQAGLNAKYLAEV-NH2 [compound 266]	4.45	19.4	–

Molecule	Emax ([1]; read-out: CRF1R Emax) [%]	Emax ([2]; read-out: CRF2R Emax) [%]	other results
NDDPPISIDLPYYLLRNMIEMARIENEREQAGLNAKYLAEV-NH2 [compound 267]	22.8	44.2	–
SEEPPISLDLTFHLLREVLEMARAEQLAQQAHTNARILARV-NH2 [compound 161]	77	88	–
SEEPPISLDVPIGLLQEVLEMARAEQLAQQAHSNRKLMEII-NH2 [compound 162]	11	7	–
SQEIVLSLDVPIGLLREVLEMTKADQLAQQAHSNRKLLDIA-NH2 [compound 7]	–	–	EC50 ([1]; read-out: CRF1R EC50): ≥ 100 nM; EC50 ([2]; read-out: CRF2R EC50): ≥ 100 nM
SQEIVLSLDVPIGLLREVLEMTKADQLAQQAHSNRKLLDIA-NH2 [compound 152]	4	19	–
SQEPPISLDLPFELLREVLEMTKADQLAQQAHSNRKLLDIA-NH2 [compound 97]	4.25	7.6	–
SQEPPISLDLPFGLLREVLEMTKADQLAQQAHSNRKLLDIA-NH2 [compound 103]	5.75	4.85	–
SQEPPISLDLPFQLLREVLEMTKADQLAQQAHSNRKLLDIA-NH2 [compound 91]	4	7.1	–
SQEPPISLDLPFYLLREVLEMTKADQLAQQAHSNRKLLDIA-NH2 [compound 96]	16.3	12.5	–
SQEPPISLDLPIGLLREVLEMTKADQLAQQAHSNRKLLDIA-NH2 [compound 93]	5	6.4	–
SQEPPISLDLPIHLLREVLEMTKADQLAQQAHSNRKLLDIA-NH2 [compound 94]	7.3	6.15	–
SQEPPISLDLPIQLLREVLEMTKADQLAQQAHSNRKLLDIA-NH2 [compound 100]	6.25	9.85	–
SQEPPISLDLPLGLLREVLEMTKADQLAQQAHSNRKLLDIA-NH2 [compound 90]	4	12.2	–
SQEPPISLDLPLHLLREVLEMTKADQLAQQAHSNRKLLDIA-NH2 [compound 102]	7.8	13.5	–
SQEPPISLDLPLQLLREVLEMTKADQLAQQAHSNRKLLDIA-NH2 [compound 95]	5.55	8.25	–
SQEPPISLDLPLYLLREVLEMTKADQLAQQAHSNRKLLDIA-NH2 [compound 101]	7.35	6.95	–
SQEPPISLDLPTELLREVLEMTKADQLAQQAHSNRKIIDIA-NH2 [compound 92]	4.6	15.8	–

— US6936585B2, “Corticotropin releasing factor 2 receptor agonists” (priority 2002, dated 2005)
